In PubChem BioAssay (NCI):
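Dose response: 5 concentrations. Exposure: 48 h. Format: 96-well plates. Endpoint: linear interpolation; highest concentration if not reached. TGI denotes the concentration required for complete inhibition of growth.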

Assays:
Assay in all cases: NCI anticancer screen, dose series, 48 h
[1] = tested on: PC-3 prostate
[2] = tested on: HOP-62 NSCLC
[3] = tested on: SF-268 CNS
[4] = tested on: NCI-H460 lung
[5] = tested on: 786-0 renal
[6] = tested on: COLO 205 colon
[7] = tested on: RPMI-8226 leukemia
[8] = tested on: SNB-75 CNS
[9] = tested on: MALME-3M melanoma
[10] = tested on: HS 578T breast
[11] = tested on: HOP-92 NSCLC
[12] = tested on: MDA-N
[13] = tested on: SK-MEL-28 melanoma
[14] = tested on: K-562 leukemia
[15] = tested on: HCC-2998 colon
[16] = tested on: OVCAR-5 ovarian
[17] = tested on: TK-10 renal
[18] = tested on: NCI-H23 lung
[19] = tested on: HL-60(TB) leukemia
[20] = tested on: SF-539 CNS
[21] = tested on: HT29 colon
[22] = tested on: SNB-19 CNS
[23] = tested on: OVCAR-3 ovarian
[24] = tested on: KM12 colon
[25] = tested on: T-47D breast
[26] = tested on: SK-MEL-2 melanoma
[27] = tested on: OVCAR-4 ovarian
[28] = tested on: SK-MEL-5 melanoma
[29] = tested on: SR leukemia
[30] = tested on: BT-549 breast
[31] = tested on: CCRF-CEM leukemia
[32] = tested on: ACHN renal
[33] = tested on: UO-31 renal
[34] = tested on: MDA-MB-231 breast
[35] = tested on: SK-OV-3 ovarian
[36] = tested on: A498 renal
[37] = tested on: UACC-62 melanoma
[38] = tested on: M14 melanoma
[39] = tested on: RXF 393 renal
[40] = tested on: MCF7 breast
[41] = tested on: DU-145 prostate
[42] = tested on: LOX IMVI melanoma
[43] = tested on: SW-620 colon
[44] = tested on: NCI-H226 lung
[45] = tested on: MDA-MB-435
[46] = tested on: IGROV1 ovarian
[47] = tested on: HCT-116 colon
[48] = tested on: HCT-15 colon
[49] = tested on: NCI/ADR-RES ovarian
[50] = tested on: SN12C renal
[51] = tested on: UACC-257 melanoma
[52] = tested on: U251 CNS
[53] = tested on: A549 NSCLC
[54] = tested on: OVCAR-8 ovarian
[55] = tested on: NCI-H522 lung
[56] = tested on: EKVX NSCLC
[57] = tested on: SF-295 CNS
[58] = tested on: CAKI-1 renal
[59] = tested on: MOLT-4 leukemia

With `Cc1ccc(C(=O)Cn2c(C(=O)/C=C/c3cccs3)nc3ccccc32)cc1` the TGI [1] was over 100 µM, the TGI [2] was over 100 µM and the TGI [3] was over 100 µM. It also gave a TGI [4] of over 100 µM, a TGI [5] of over 100 µM and a TGI [6] of over 100 µM. It also gave a TGI [7] of over 100 µM, a TGI [8] of over 100 µM and a TGI [9] of over 100 µM. The TGI [10] was 72.6 µM, the TGI [11] was over 100 µM and the TGI [12] was over 100 µM. The TGI [13] was over 100 µM, the TGI [14] was over 100 µM and the TGI [15] was 43.7 µM. The TGI [16] was over 100 µM, the TGI [17] was over 100 µM and the TGI [18] was over 100 µM. It also gave a TGI [19] of over 100 µM, a TGI [20] of over 100 µM and a TGI [21] of over 100 µM. It also gave a TGI [22] of over 100 µM, a TGI [23] of over 100 µM and a TGI [24] of over 100 µM. For the same molecule, the TGI [25] was over 100 µM, the TGI [26] was 48.3 µM and the TGI [27] was over 100 µM. It also gave a TGI [28] of over 100 µM, a TGI [29] of 50.4 µM and a TGI [30] of over 100 µM. It also gave a TGI [31] of 38.5 µM, a TGI [32] of over 100 µM and a TGI [33] of over 100 µM. For the same molecule, the TGI [34] was over 100 µM, the TGI [35] was over 100 µM and the TGI [36] was over 100 µM. For the same molecule, the TGI [37] was over 100 µM, the TGI [38] was over 100 µM and the TGI [39] was over 100 µM. The TGI [40] was over 100 µM, the TGI [41] was over 100 µM and the TGI [42] was over 100 µM. It also gave a TGI [43] of over 100 µM, a TGI [44] of over 100 µM and a TGI [45] of over 100 µM. The TGI [46] was over 100 µM, the TGI [47] was over 100 µM and the TGI [48] was over 100 µM. It also gave a TGI [49] of over 100 µM, a TGI [50] of over 100 µM and a TGI [51] of over 100 µM. It also gave a TGI [52] of over 100 µM and a TGI [53] of over 100 µM.

`Cc1c(Cl)nc(Cl)nc1Cl` gave a TGI [1] of 5.35 µM, a TGI [2] of 9.22 µM and a TGI [3] of 4.01 µM. For the same molecule, the TGI [4] was 20.1 µM, the TGI [54] was 18.9 µM and the TGI [5] was 3.7 µM. For the same molecule, the TGI [6] was 1.15 µM, the TGI [8] was 11.7 µM and the TGI [9] was 2.68 µM. The TGI [10] was 8.31 µM, the TGI [11] was 4.99 µM and the TGI [12] was 6.85 µM. It also gave a TGI [13] of 8.5 µM, a TGI [15] of 2.73 µM and a TGI [16] of 3.46 µM. For the same molecule, the TGI [55] was 0.118 µM, the TGI [17] was 7.16 µM and the TGI [18] was 4.64 µM. For the same molecule, the TGI [20] was 5.62 µM, the TGI [21] was 6.4 µM and the TGI [22] was 9.09 µM. The TGI [56] was 3.82 µM, the TGI [23] was 3.25 µM and the TGI [24] was 6.15 µM. The TGI [25] was 4.11 µM, the TGI [57] was 10.6 µM and the TGI [27] was 2.8 µM. For the same molecule, the TGI [28] was 5.8 µM, the TGI [29] was 10.8 µM and the TGI [30] was 10.2 µM. For the same molecule, the TGI [31] was 0.676 µM, the TGI [32] was 0.829 µM and the TGI [33] was 1.18 µM. The TGI [34] was 2.99 µM, the TGI [35] was 11.7 µM and the TGI [36] was 11.9 µM. For the same molecule, the TGI [37] was 9.42 µM, the TGI [38] was 2.11 µM and the TGI [39] was 4.07 µM. The TGI [40] was 2.6 µM, the TGI [58] was 0.695 µM and the TGI [41] was 11.1 µM. It also gave a TGI [42] of 1.34 µM, a TGI [43] of 4.68 µM and a TGI [44] of 8.46 µM. For the same molecule, the TGI [59] was 1.38 µM, the TGI [45] was 6.75 µM and the TGI [46] was 8.33 µM. It also gave a TGI [47] of 3.95 µM, a TGI [48] of 1.25 µM and a TGI [49] of 4.45 µM. For the same molecule, the TGI [50] was 7.53 µM, the TGI [51] was 5.67 µM and the TGI [52] was 3.18 µM. For the same molecule, the TGI [53] was 7.34 µM.
